Legend:
human neutrophils [1] = experiment: Killing of bacteria by neutrophils; assay type: cell-based
p47phox = experiment: Translocation of p47phox subunit to the cell membrane (western blot of membrane fraction); assay type: cell-based, human; conditions: TNF or PMA stimulation
Excerpt: In an attempt to identify specific steps of the biochemical pathway(s) that are influenced by Comp II, the effect on translocation of phagocyte oxidase (Phox) translocation was examined. Phox is a multi-subunit enzyme complex that generates H2O2 upon activation. Activation of Phox requires an assembly of both membrane associated and cytosolic subunits at the plasma or phagosomal membrane as well as phosphorylation of several subunits. The cytochrome b559 (also known as b558) components of phox (gp91 and gp22) are localized on the membranes of specific granules (Bjerrum et al, “Dual Granule Localization of the Dormant NADPH Oxidase and Cytochrome b559 in Human Neutrophils,” Eur J Haematol 43(1): 67-77 (1989), which is hereby incorporated by reference in its entirety), and recruitment of these subunits to the membrane occurs simultaneously with degranulation. […] The influence of Comp II on the translocation of p47phox subunit, one of the components of NADPH oxidase, to the cell membrane, was examined as follows.
Neutrophil lysates were prepared as above with 2.5% TritonX-100 lysis buffer (final concentration of 1% TritonX-100 after dilution in plate with residual KRPG). The cell lysate was passed through 26-gauge needle six times to shear DNA and centrifuged at 20,000×g for 15 min to remove cell debris and DNA. […]

human neutrophils [2] = experiment: Reversibility of inhibition of TNF triggered respiratory burst after washing; assay type: cell-based; conditions: washed twice with cold KRPG before TNF 100 ng/ml
Description: Neutrophils were incubated with test compounds I-V or DMSO at 37° C. for 30 min in FBS coated tubes (Falcon, Cat. Number 352063), washed twice with cold KRPG, and plated in 96 well plates before stimulation with TNF (100 ng/ml) or an equivalent volume of KRPG buffer as a control. On a separate plate, compounds were added back to the neutrophils that were washed off compounds, and cells were stimulated to ensure neutrophils' capacity to respond. Neutrophils incubated with each compound without washing were also stimulated for comparison.

In the case of `O=C1CC(c2ccccc2)=NN1c1cccc(Cl)c1` [Comp II, 2-(3-Chloro-phenyl)-5-phenyl-2,4-dihydro-pyrazol-3-one], the “bacterial killing ability of PMNs (general statement)” value (human neutrophils [1]) is reported as “sparing”, the “activation triggered translocation of phox 47 to the membrane” value (p47phox) is reported as “not inhibited” and the “reversibility of inhibition of TNF triggered respiratory burst” value (human neutrophils [2]) is reported as “greatest reversibility”.

— patent US7977366B2, “Treating an inflammatory disorder or inhibiting respiratory burst in adherent neutrophils with chemical inhibitors of neutrophil activation” (Cornell Research Foundation, Inc., priority 2003, dated 2011)
